Tests used:
Assay type in all cases: ADME, organism-based
[1] = Elimination rate constant in extracorporeal membrane oxygenation-treated human neonatal plasma treatment at 50 mg/kg BID by UPLC-MS/MS analysis; parameters: dose 50 mg/kg
[2] = Volume of distribution in extracorporeal membrane oxygenation-treated human neonatal plasma at 50 mg/kg BID by UPLC-MS/MS analysis; parameters: dose 50 mg/kg
Plasma [3] = assay: Volume of distribution in extracorporeal membrane oxygenation-treated human neonatal plasma at 20 mg/kg, po by UPLC-MS/MS analysis; parameters: dose 20 mg/kg, route oral; conditions: in vivo
[4] = Elimination rate constant in extracorporeal membrane oxygenation-treated human neonatal plasma at 25 mg/kg QID by UPLC-MS/MS analysis; parameters: dose 25 mg/kg
[5] = Volume of distribution in extracorporeal membrane oxygenation-treated human neonatal plasma at 25 mg/kg SID by UPLC-MS/MS analysis; parameters: dose 25 mg/kg
Plasma [6] = assay: Intercompartmental clearance rate from peripheral to central side of extracorporeal membrane oxygenation-treated human neonatal plasma at 20 mg/kg, po by UPLC-MS/MS analysis; parameters: dose 20 mg/kg, route oral; conditions: in vivo
Plasma [7] = assay: Intercompartmental clearance rate from central to peripheral side of extracorporeal membrane oxygenation-treated human neonatal plasma at 20 mg/kg, po by UPLC-MS/MS analysis; parameters: dose 20 mg/kg, route oral; conditions: in vivo

CO/N=C(\C(=O)N[C@@H]1C(=O)N2C(C(=O)O)=C(COC(C)=O)CS[C@H]12)c1csc(N)n1 [CEFOTAXIME]
k el [1]: 5.47e-05 s⁻¹ | Vd [2]: 0.912 L/kg

CC1(C)S[C@@H]2[C@H](NC(=O)[C@H](N)c3ccc(O)cc3)C(=O)N2[C@H]1C(=O)O [AMOXICILLIN]
Vd (Plasma [3]): 1.03 L/kg | k el [4]: 9.17e-05 s⁻¹ | Vd [5]: 0.713 L/kg

CN[C@H](CC(C)C)C(=O)N[C@H]1C(=O)N[C@@H](CC(N)=O)C(=O)N[C@H]2C(=O)N[C@H]3C(=O)N[C@H](C(=O)N[C@H](C(=O)O)c4cc(O)cc(O)c4-c4cc3ccc4O)[C@H](O)c3ccc(c(Cl)c3)Oc3cc2cc(c3O[C@@H]2O[C@H](CO)[C@@H](O)[C@H](O)[C@H]2O[C@H]2C[C@](C)(N)[C@H](O)[C@H](C)O2)Oc2ccc(cc2Cl)[C@H]1O [VANCOMYCIN]
k21 (Plasma [6]): 2.634 h⁻¹ | k12 (Plasma [7]): 1.5 h⁻¹

Reference: ChEMBL document CHEMBL1629576, “Microanalysis of beta-lactam antibiotics and vancomycin in plasma for pharmacokinetic studies in neonates” (Antimicrob Agents Chemother, 2009)
